CCCCCCCCCCCCCCCCOc1nc2ccc(C)cc2c(=O)o1
solubility (mole fraction)
Conditions | 278.15 K | 283.15 K | 288.15 K | 293.15 K | 298.15 K | 303.15 K | 308.15 K | 313.15 K | 318.15 K | 323.15 K
in acetone | 0.0814 | 0.0965 | 0.114 | 0.133 | 0.157 | 0.18 | 0.208 | 0.245 | 0.284 | 0.327
in acetonitrile | 0.0619 | 0.0759 | 0.089 | 0.106 | 0.123 | 0.144 | 0.167 | 0.191 | 0.222 | 0.259
in isopropanol | 0.0702 | 0.0829 | 0.0979 | 0.116 | 0.137 | 0.158 | 0.181 | 0.207 | 0.241 | 0.28

Reference: BigSolDB 2.1
